According to patent US12441730B2, “PRMT5 inhibitors” (Merck Sharp & Dohme LLC, priority 2019, dated 2025):
Where two headings read alike, the source gives them in different places.

Experiments:
[1] = target: T1, Full-length (FL)-PRMT5-MEP50 enzyme complex (Homo sapiens, UniProt O14744); experiment: PRMT5-MEP50 Enzyme Methylation Assay (Version B); type: biochemical
T1 construct: Full-length (FL)-PRMT5-MEP50 enzyme complex (recombinant proteins from baculovirus-transfected Sf21 cells: FL-PRMT5; MW=73837 kDa and FL-MEP50; MW=38614); made in house; host or cells: baculovirus-transfected Sf21 cells
Protocol: PRMT5-MEP50 Enzyme Methylation Assay (Version B)
PRMT5/MEP50 biochemical assay is a direct measurement of the methylation activity of the enzyme complex on a short peptide substrate derived from the N-terminus of H4 histone. Methylation experiment was performed with recombinant protein. The assessment of inhibitory effect (IC50) of small molecules was measured by the effectiveness of the compounds to inhibit this reaction.
In this assay, the potency (IC50) of each compound was determined from a twenty-point (1:2 serial dilution; top compound concentration of 100000 nM) titration curve using the following outlined procedure. To each well of a white ProxiPlus 384 well-plate, 100 nL of compound (1% DMSO in final assay volume of 10 μL) was dispensed, followed by the addition of 8 μL of 1× assay buffer (50 mM Bicine pH 8.0, 1 mM DTT, 0.004% Tween20, 0.01% BSA) containing 0.5 nM of Full-length (FL)-PRMT5-MEP50 enzyme complex (recombinant proteins from baculovirus-transfected Sf21 cells: FL-PRMT5; MW=[…] and FL-MEP50; MW=38614). Plates were sealed and placed in a 37° C. humidified chamber for 30 minutes pre-incubation with compounds. Subsequently, each reaction was initiated by the addition of 2 μL 1× assay buffer containing 75 nM biotinylated H4R3 (Me1) peptide, and 15 μM S-(5′-Adenosyl)-L-Methionine Chloride (SAM). The final reaction in each well of 10 μL consists of 0.5 nM PRMT5-MEP50, 75 nM biotinylated-peptide, and 15 μM SAM. Methylation reactions were allowed to proceed for 150 minutes in a sealed plate at 37° C. Reactions were immediately quenched by the addition of 1 μL of 10% formic acid. Plates were then frozen and shipped to SAMDI™ Tech Inc. to determine the percent conversion from […]. EC50 values were determined by non-linear regression according to models for either sigmoidal (4 parameters) or biphasic (7 parameters) dose-response curves.

[2] = test system: symmetric dimethylation of arginine (SDMA) of PRMT5 substrates in MCF-7 cells; experiment: PRMT5 Cell Target Engagement (TE) Assay; type: cell-based; conditions: Homo sapiens, MCF7, 72 h, 3 days treatment, SDMA high content imaging
How it was run: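 MCF-7 cells treated 3 days at 37 °C with a ten-point 1:3 titration from 10000 nM. Fixed cells immunostained with anti-SDMA and Alexa488 secondary; nuclear fluorescence quantified by high-content imaging versus DMSO wells, with IC50 from a 4-parameter fit.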

[3] = second value of 7 parameter biphasic fit, read-out: Enzyme Methylation Assay Version B (EC50 2)
[4] = single EC50 = 4 parameter single site sigmoidal fit, EC50 1 = first value of 7 parameter biphasic fit, read-out: Enzyme Methylation Assay Version B (EC50 or EC50 1)

T1 sequence (O14744 whole entry): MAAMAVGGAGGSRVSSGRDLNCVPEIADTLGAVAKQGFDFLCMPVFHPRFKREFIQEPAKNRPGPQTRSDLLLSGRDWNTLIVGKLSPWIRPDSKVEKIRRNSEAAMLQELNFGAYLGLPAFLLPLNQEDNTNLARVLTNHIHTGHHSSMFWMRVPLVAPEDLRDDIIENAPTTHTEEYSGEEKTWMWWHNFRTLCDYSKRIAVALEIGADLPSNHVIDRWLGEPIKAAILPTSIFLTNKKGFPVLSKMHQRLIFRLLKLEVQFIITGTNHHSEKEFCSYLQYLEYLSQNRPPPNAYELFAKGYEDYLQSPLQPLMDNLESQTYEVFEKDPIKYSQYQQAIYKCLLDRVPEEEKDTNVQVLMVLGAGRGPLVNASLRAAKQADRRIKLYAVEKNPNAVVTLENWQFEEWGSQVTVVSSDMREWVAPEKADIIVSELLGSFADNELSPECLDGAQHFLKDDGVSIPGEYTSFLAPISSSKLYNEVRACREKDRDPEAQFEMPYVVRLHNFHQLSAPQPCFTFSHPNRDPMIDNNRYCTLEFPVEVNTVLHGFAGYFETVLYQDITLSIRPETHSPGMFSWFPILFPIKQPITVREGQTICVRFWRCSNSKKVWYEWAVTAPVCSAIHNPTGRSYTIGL
T1 sequence (Q9BQA1 whole entry partner): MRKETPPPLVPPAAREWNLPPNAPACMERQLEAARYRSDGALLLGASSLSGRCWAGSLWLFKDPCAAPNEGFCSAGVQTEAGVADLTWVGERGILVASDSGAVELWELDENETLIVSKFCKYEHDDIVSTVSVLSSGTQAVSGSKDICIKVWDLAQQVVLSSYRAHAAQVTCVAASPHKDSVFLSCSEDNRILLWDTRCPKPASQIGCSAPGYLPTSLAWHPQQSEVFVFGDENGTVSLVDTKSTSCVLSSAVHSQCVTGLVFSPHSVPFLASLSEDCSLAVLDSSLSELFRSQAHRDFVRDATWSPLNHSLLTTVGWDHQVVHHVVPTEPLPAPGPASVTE

SMILES | EC50 [1, 3] [nM] | EC50 [1, 4] [nM] | EC50 [2] [nM]
[2H]C1([2H])NC2(CCN(C(=O)c3ccc(C(=O)N4C5CCC4COC5)cc3OCC)CC2)Cc2ccccc21 [Example 175, (4-(3-oxa-8-azabicyclo[3.2.1]octane-8-carbonyl)-2-ethoxyphenyl)(1,4-dihydro-2H-spiro[isoquinoline-3,4′-piperidin]-1′-yl-1,1-d2)methanone] | 2490 | 6.32 | 156
O=C(c1ccc(C(=O)N2C3CCC2COC3)cc1OC1CC1)N1CCC2(CC1)Cc1ccccc1CN2 [Example 176, (4-(3-oxa-8-azabicyclo[3.2.1]octane-8-carbonyl)-2-cyclopropoxyphenyl)(1,4-dihydro-2H-spiro[isoquinoline-3,4′-piperidin]-1′-yl)methanone] | 2860 | 11 | 253
